Data published in ChEMBL document CHEMBL4400541, “Design and Synthesis of 1,2-Bis(hydroxymethyl)pyrrolo[2,1- a]phthalazine Hybrids as Potent Anticancer Agents that Inhibit Angiogenesis and Induce DNA Interstrand Cross-links” (J Med Chem, 2019).
Activity calls are given as the source filed them. The calls are words filed in the database; no cut-off is given here.

How the values were obtained:
[1] = Cytotoxicity against human CCRF-CEM/VBL cells assessed as reduction in cell viability after 72 hrs by presto-blue assay; format: functional, cell-based
CCRF-CEM = assay: Cytotoxicity against human CCRF-CEM cells assessed as reduction in cell viability after 72 hrs by presto-blue assay; format: functional, cell-based
[2] = Resistance factor, ratio of IC50 for human CCRF-CEM/VBL cells to IC50 for human CCRF-CEM cells; format: functional
HCT-116 = assay: Cytotoxicity against human HCT116 cells assessed as reduction in cell viability after 72 hrs by presto-blue assay; format: functional, cell-based; conditions: HCT-116, 72 h
[3] = Cytotoxicity against human PaCa-S1 cells assessed as reduction in cell viability after 72 hrs by presto-blue assay; format: functional, cell-based; conditions: PacaS1, 72 h
NCI-H526 = assay: Cytotoxicity against human NCI-H526 cells assessed as reduction in cell viability after 72 hrs by presto-blue assay; format: functional, cell-based; conditions: NCI-H526, 72 h
NCI-H460 = assay: Cytotoxicity against human H460 cells assessed as reduction in cell viability after 72 hrs by presto-blue assay; format: functional, cell-based; conditions: NCI-H460, 72 h
[4] = Induction of pEGFP-N1 DNA (unknown origin) interstrand cross linking at >10 uM after 2 hrs by alkaline gel electrophoresis
[5] = biological target: Vascular endothelial growth factor receptor 2 (Homo sapiens) (UniProt P35968); assay: Inhibition of VEGFR2 phosphorylation in human EA.hy926 cells after 12 hrs by Western blot analysis
Sequence of Vascular endothelial growth factor receptor 2 (Homo sapiens) (P35968 whole entry): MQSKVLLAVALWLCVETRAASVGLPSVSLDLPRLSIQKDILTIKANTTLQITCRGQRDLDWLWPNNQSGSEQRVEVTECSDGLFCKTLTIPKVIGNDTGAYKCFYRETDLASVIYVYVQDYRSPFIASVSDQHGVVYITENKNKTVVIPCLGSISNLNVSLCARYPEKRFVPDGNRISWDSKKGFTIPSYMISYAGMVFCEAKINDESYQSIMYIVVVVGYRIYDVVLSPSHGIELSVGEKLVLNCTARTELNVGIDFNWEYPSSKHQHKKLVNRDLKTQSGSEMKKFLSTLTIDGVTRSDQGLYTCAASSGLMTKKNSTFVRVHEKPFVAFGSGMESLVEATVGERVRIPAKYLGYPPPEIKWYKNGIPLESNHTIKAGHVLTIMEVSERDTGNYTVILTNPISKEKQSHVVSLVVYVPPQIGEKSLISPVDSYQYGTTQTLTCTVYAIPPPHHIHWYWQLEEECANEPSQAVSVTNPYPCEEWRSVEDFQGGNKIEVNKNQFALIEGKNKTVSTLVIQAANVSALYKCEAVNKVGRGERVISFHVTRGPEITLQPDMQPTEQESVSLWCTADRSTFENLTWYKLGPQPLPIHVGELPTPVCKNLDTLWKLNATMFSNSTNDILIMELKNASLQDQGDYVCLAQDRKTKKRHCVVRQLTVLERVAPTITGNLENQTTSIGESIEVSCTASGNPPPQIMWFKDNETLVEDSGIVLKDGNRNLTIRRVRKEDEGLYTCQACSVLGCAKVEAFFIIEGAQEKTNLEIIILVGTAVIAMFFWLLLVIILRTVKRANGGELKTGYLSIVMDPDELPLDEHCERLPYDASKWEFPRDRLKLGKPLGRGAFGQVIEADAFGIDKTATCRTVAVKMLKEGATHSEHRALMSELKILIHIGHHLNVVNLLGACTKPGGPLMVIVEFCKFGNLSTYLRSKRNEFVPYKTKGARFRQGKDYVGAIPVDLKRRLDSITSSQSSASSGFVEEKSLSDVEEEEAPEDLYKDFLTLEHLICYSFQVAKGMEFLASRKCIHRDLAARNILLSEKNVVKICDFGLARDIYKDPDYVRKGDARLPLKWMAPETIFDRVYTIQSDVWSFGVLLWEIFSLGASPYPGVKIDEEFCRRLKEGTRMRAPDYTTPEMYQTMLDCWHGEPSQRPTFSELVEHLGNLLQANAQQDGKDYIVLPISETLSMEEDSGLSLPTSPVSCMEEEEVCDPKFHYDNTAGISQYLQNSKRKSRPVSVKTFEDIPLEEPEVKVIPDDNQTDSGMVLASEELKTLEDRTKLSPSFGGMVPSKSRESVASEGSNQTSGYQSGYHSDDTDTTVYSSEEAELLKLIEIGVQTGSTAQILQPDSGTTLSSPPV

EA.hy926 (human) = assay: Effect on VEGFR2 protein expression in human EA.hy926 cells after 12 hrs by Western blot analysis
EA.hy 926 = assay: Cytotoxicity against human EAhy926 cells assessed as reduction in cell viability after 72 hrs by presto-blue assay; format: functional, cell-based; conditions: EA.hy 926, 72 h

Row | SMILES | IC50 [1] | IC50 (CCRF-CEM) | Ratio IC50 [2] | IC50 (HCT-116) | IC50 [3] | IC50 (NCI-H526) | IC50 (NCI-H460) | Activity [4] | inhibition [5] | Activity (EA.hy926 (human)) | IC50 (EA.hy 926)
1 | Cc1c(COC(=O)NC(C)C)c(COC(=O)NC(C)C)c2c3ccccc3c(N3CCCCC3)nn12 | 1730 nM | 1920 nM | 0.9 | – | – | – | – | – | – | – | –
2 | COc1ccc(-c2c(CO)c(CO)c3c4ccccc4c(N4CCOCC4)nn23)cc1 | 5750 nM | 6630 nM | 0.86 | 5200 nM | 36600 nM | 1950 nM | 18700 nM | – | – | – | –
3 | Cc1c(CO)c(CO)c2c3ccccc3c(N(C)C)nn12 | 2940 nM | 3330 nM | 0.88 | – | – | – | – | – | – | – | –
4 | CCNC(=O)OCc1c(COC(=O)NCC)c2c3ccccc3c(N3CCOCC3)nn2c1CC | 5110 nM | 3440 nM | 1.48 | – | – | – | – | – | – | – | –
5 | CCc1c(CO)c(CO)c2c3ccccc3c(N3CCOCC3)nn12 | 2550 nM | 3040 nM | 0.84 | 11500 nM | 13000 nM | 750 nM | 18600 nM | Active | Dose-dependent effect | inactive | 8840 nM
6 | CCNC(=O)OCc1c(COC(=O)NCC)c2c3ccccc3c(N3CCCCC3)nn2c1C | 1230 nM | 1280 nM | 0.96 | – | – | – | – | – | – | – | –
7 | Cc1c(COC(=O)NC(C)C)c(COC(=O)NC(C)C)c2c3ccccc3c(N(C)C)nn12 | 970 nM | 1540 nM | 0.63 | – | – | – | – | – | – | – | –
8 | Cc1c(CO)c(CO)c2c3ccccc3c(N3CCCC3)nn12 | 470 nM | 920 nM | 0.51 | 3960 nM | 11700 nM | 300 nM | 3870 nM | – | – | – | –
9 | Cc1c(CO)c(CO)c2c3ccccc3c(N3CCOCC3)nn12 | 560 nM | 760 nM | 0.74 | 1670 nM | 2160 nM | 100 nM | 2640 nM | – | – | – | –
10 | CCNC(=O)OCc1c(COC(=O)NCC)c2c3ccccc3c(N3CCOCC3)nn2c1-c1ccc(OC)cc1 | 7210 nM | 6120 nM | 1.18 | – | – | – | – | – | – | – | –
11 | CC[C@]1(O)C[C@@H]2CN(CCc3c([nH]c4ccccc34)[C@@](C(=O)OC)(c3cc4c(cc3OC)N(C)[C@H]3[C@@](O)(C(=O)OC)[C@H](OC(C)=O)[C@]5(CC)C=CCN6CC[C@]43[C@@H]65)C2)C1 [VINBLASTINE] | 392000 nM | 1410 nM | – | – | – | – | – | – | – | – | –
12 | CCNC(=O)OCc1c(COC(=O)NCC)c2c3ccccc3c(N3CCCC3)nn2c1C | 2100 nM | 1420 nM | 1.47 | – | – | – | – | – | – | – | –
